Values of other authors as cited in US9452147B2, “Lipolytic methods” (Neothetics, Inc., priority 2005, dated 2016).

How the values were obtained:
[1] = relative to albuterol 5, a short acting hydrophilic beta agonist
[2] = tested on: thigh circumference in women; settings: subcutaneous injections three to five times per week in multiple locations over the thighs

Question: Which “times more lipophilic than albuterol 5” value [1] does the source give for `OCc1cc(C(O)CNCCCCCCOCCCCc2ccccc2)ccc1O` (racemic) [salmeterol 1, ±2-(hydroxymethyl)-4-[1-hydroxy-2-[6-(4-phenylbutoxyl)hexylamino]ethyl]-phenol] here?
Answer: at least 10,000 times

Question: For `CC(C)NCC(O)c1ccc(O)c(O)c1` (stereo not drawn) [isoproterenol], which “thigh circumference in women” value [2] is on record?
Answer: reduce the thigh circumference

Question: Which “thigh circumference in women” value [2] does the source give for `COC(=O)[C@@H]1[C@H]2C[C@H]3c4[nH]c5ccccc5c4CCN3C[C@@H]2CC[C@@H]1O` [yohimbine] here?
Answer: reduce the thigh circumference
